# Assay results from patent publication US6867207B2, “IL-5 inhibiting 6-azauracil derivatives” (Janssen Pharmaceutica N.V., priority 1997, dated 2005).
# System: IL-5 production
# Experiment: In vitro inhibition of IL-5 production in human blood (phytohemagglutinin-stimulated whole blood, ELISA)
# Assay type: cell-based
# Details: test dose 1×10^−5 M (values marked *), 48 hours, read-out: % inh. (percentage inhibition of IL-5 production), marked with *
# Outline: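 Percent inhibition of IL-5, quantified by ELISA in cell-free supernatants, is given at a single dose of 1×10^−6 M (or 1×10^−5 M). Threefold-diluted human whole blood from healthy men received compound for 60 min at 37° C before 48 h PHA stimulation at 2 μg/mL.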
row,Compound,inhibition at 10 µM
1,"O=c1cnn(-c2ccc(C(NCc3ncc[nH]3)c3ccc(Cl)cc3)c(Cl)c2)c(=O)[nH]1 (racemic) [Compound 50, (±)-2-[3-chloro-4-[(4-chlorophenyl)[(1H-imidazol-2-ylmethyl)amino]methyl]phenyl]-1,2,4-triazine-3,5(2H,4H)-dione]",20%

# Same assay, conditions: test dose 1×10^−6 M, 48 hours
row,Compound,% inh. (percentage inhibition of IL-5 production)
1,O=c1cnn(-c2ccc(C(Sc3ccc(C(F)(F)F)cn3)c3ccc(Cl)cc3)c(Cl)c2)c(=O)[nH]1 (stereo not shown) [Compound 88],26%
2,CN1CCC(Nc2ccnc(SC(c3ccc(Cl)cc3)c3c(Cl)cc(-n4ncc(=O)[nH]c4=O)cc3Cl)n2)CC1.Cl.O (racemic) [Compound 354],70%
3,Cc1cccc(-c2nnc(C(c3ccc(Cl)cc3)c3c(Cl)cc(-n4ncc(=O)[nH]c4=O)cc3Cl)o2)c1 (racemic) [Compound 178],78%
4,O=c1cnn(-c2ccc(C(c3ccc(Cl)cc3)c3ncc(-c4ccccc4)o3)c(Cl)c2)c(=O)[nH]1 (racemic) [Comp 103],63%
5,CN(C)c1ccc(-c2nnc(C(c3ccc(Cl)cc3)c3c(Cl)cc(-n4ncc(=O)[nH]c4=O)cc3Cl)o2)cc1 (racemic) [Compound 180],54%
6,COc1cc(C)nc(NC(c2ccc(Cl)cc2)c2ccc(-n3ncc(=O)[nH]c3=O)cc2Cl)n1 (racemic) [Compound 42],57%
7,CN(C)Cc1csc(C(c2ccc(Cl)cc2)c2c(Cl)cc(-n3ncc(=O)[nH]c3=O)cc2Cl)n1 (racemic) [Comp 240],54%
8,CC(c1ccc(Cl)cc1)(c1nnc(-c2ccccc2)o1)c1ccc(-n2ncc(=O)[nH]c2=O)cc1Cl (racemic) [Comp 104],60%
9,CC(c1ccc(Cl)cc1)(c1nnc(-c2ccccc2)o1)c1c(Cl)cc(-n2ncc(=O)[nH]c2=O)cc1Cl (racemic) [Compound 206],82%
10,O=c1cnn(-c2cc(Cl)c(C(c3ccc(Cl)cc3)c3nc(-c4cc(Cl)ccc4Cl)cs3)c(Cl)c2)c(=O)[nH]1 (racemic) [Comp 257],82%
11,CN(C)Cc1sc(C(c2ccc(Cl)cc2)c2c(Cl)cc(-n3ncc(=O)[nH]c3=O)cc2Cl)nc1-c1ccccc1 (racemic) [Comp 253],96%
12,O=c1cnn(-c2cc(Cl)c(C(Sc3nc(-c4ccccc4)cs3)c3ccc(Cl)cc3)c(Cl)c2)c(=O)[nH]1 (stereo not shown) [Compound 380],95%
13,CN(C)C(=O)CCc1sc(C(c2ccc(Cl)cc2)c2c(Cl)cc(-n3ncc(=O)[nH]c3=O)cc2Cl)nc1-c1ccccc1 (racemic) [Comp 281],91%
14,CN(C)CCSC(c1ccc(Cl)cc1)c1ccc(-n2ncc(=O)[nH]c2=O)cc1Cl (racemic) [Compound 54],14%
15,CC(c1ccc(Cl)c(F)c1)(c1nc(-c2ccccc2)cs1)c1c(Cl)cc(-n2ncc(=O)[nH]c2=O)cc1Cl (racemic) [Comp 288],90%
16,CN1CCN(c2ccc(-c3nnc(C(c4ccc(Cl)cc4)c4c(Cl)cc(-n5ncc(=O)[nH]c5=O)cc4Cl)o3)cc2)CC1 (racemic) [Compound 199],43%
17,COCc1cc(O)nc(SC(c2ccc(Cl)cc2)c2ccc(-n3ncc(=O)[nH]c3=O)cc2Cl)n1 (racemic) [Compound 82],19%
18,COc1ccccc1-c1nnc(C(c2ccc(Cl)cc2)c2c(Cl)cc(-n3ncc(=O)[nH]c3=O)cc2Cl)o1 (racemic) [Compound 171],59%
19,O=c1cnn(-c2cc(Cl)c(C(c3ccc(Cl)cc3)c3nc(Cc4ccccc4)cs3)c(Cl)c2)c(=O)[nH]1 (racemic) [Comp 225],80%
20,O=c1cnn(-c2ccc(C(SC3CCCCC3)c3ccc(Cl)cc3)c(Cl)c2)c(=O)[nH]1 (stereo not shown) [Compound 90],60%
21,CCOC(=O)CSC(c1ccc(Cl)cc1)c1ccc(-n2ncc(=O)[nH]c2=O)cc1Cl (racemic) [Compound 76],2%
22,O=c1cnn(-c2cc(Cl)c(C(c3ccncc3)c3ccc(Cl)cc3)c(Cl)c2)c(=O)[nH]1 (stereo not shown) [Comp 113],76%

row,Compound,% inh. (percentage inhibition of IL-5 production)
1,CCCc1sc(C(c2ccc(Cl)cc2)c2c(Cl)cc(-n3ncc(=O)[nH]c3=O)cc2Cl)nc1-c1ccccc1 (racemic) [Comp 245],98%
2,O=c1cnn(-c2cc(Cl)c(C(Sc3nc4ccccc4s3)c3ccc(Cl)cc3)c(Cl)c2)c(=O)[nH]1 (stereo not shown) [Compound 384],95%
3,CN(Cc1sc(C(c2ccc(Cl)cc2)c2c(Cl)cc(-n3ncc(=O)[nH]c3=O)cc2Cl)nc1-c1ccccc1)C1CCCCC1 (racemic) [Comp 334],75%
4,CN1CCN(c2ccnc(SC(c3ccc(Cl)cc3)c3c(Cl)cc(-n4ncc(=O)[nH]c4=O)cc3Cl)n2)CC1 (racemic) [Compound 345],88%
5,Cc1nc(-c2ccccc2Cl)c(C(c2ccc(Cl)cc2)c2ccc(-n3ncc(=O)[nH]c3=O)cc2Cl)s1 (racemic) [Compound 139],60%
6,O=c1cnn(-c2ccc(C(Sc3ccc(F)cc3)c3ccc(Cl)cc3)c(Cl)c2)c(=O)[nH]1 (racemic) [Compound 57],50%
7,COC(C)c1sc(C(c2ccc(Cl)cc2)c2c(Cl)cc(-n3ncc(=O)[nH]c3=O)cc2Cl)nc1-c1ccccc1 (mixture of isomers) [Comp 315],93%
8,Cc1sc(C(c2ccc(Cl)cc2)c2c(Cl)cc(-n3ncc(=O)[nH]c3=O)cc2Cl)nc1-c1ccccc1Cl (racemic) [Comp 272],87%
9,Nc1ccc(SC(c2ccc(Cl)cc2)c2ccc(-n3ncc(=O)[nH]c3=O)cc2Cl)cc1 (racemic) [Compound 59],76%
10,CN(C)C(=O)Cc1sc(C(c2ccc(Cl)cc2)c2c(Cl)cc(-n3ncc(=O)[nH]c3=O)cc2Cl)nc1-c1ccccc1 (racemic) [Comp 275],94%
11,O=c1cnn(-c2cc(Cl)c(C(c3ccc(Cl)cc3)c3nnc(-c4ccccc4F)o3)c(Cl)c2)c(=O)[nH]1 (racemic) [Compound 156],91%
12,COC(c1ccc(Cl)cc1)(c1nc2ccccc2s1)c1ccc(-n2ncc(=O)[nH]c2=O)cc1Cl (stereo not shown) [Comp 418],47%
13,"O=c1cnn(-c2cc(Cl)c(C(c3ccc(Cl)cc3)c3nnc(-c4ccccc4)o3)c(Cl)c2)c(=O)[nH]1 (racemic) [Compound 127, (±)-2-[3,5-dichloro-4-[(4-chlorophenyl)(5-phenyl-1,3,4-oxadizol-2-yl)methyl]-phenyl]-1,2,4-triazine-3,5(2H,4H)-dione]",94%
14,CS(=O)(=O)Nc1cccc(-c2nnc(C(c3ccc(Cl)cc3)c3c(Cl)cc(-n4ncc(=O)[nH]c4=O)cc3Cl)o2)c1 (racemic) [Compound 208],48%
15,O=C(CO)Nc1cccc(-c2nnc(C(c3ccc(Cl)cc3)c3c(Cl)cc(-n4ncc(=O)[nH]c4=O)cc3Cl)o2)c1 (racemic) [Compound 215],54%
16,Cl.O.O=c1cnn(-c2cc(Cl)c(C(c3ccc(Cl)cc3)c3csc(-c4ccncc4)n3)c(Cl)c2)c(=O)[nH]1 (racemic) [Compound 366],93%
17,O=c1cnn(-c2ccc(C(SC3=NCCS3)c3ccc(Cl)cc3)c(Cl)c2)c(=O)[nH]1 (racemic) [Compound 78],70%
18,Cc1ccc(-c2nnc(C(c3ccc(Cl)cc3)c3c(Cl)cc(-n4ncc(=O)[nH]c4=O)cc3Cl)o2)cc1 (racemic) [Compound 177],69%
19,Cc1sc(-c2cccc(F)c2)nc1C(c1ccc(Cl)cc1)c1c(Cl)cc(-n2ncc(=O)[nH]c2=O)cc1Cl (racemic) [Compound 370],76%
20,O=c1cnn(-c2cc(Cl)c(C(SCc3cnccn3)c3ccc(Cl)cc3)c(Cl)c2)c(=O)[nH]1 (racemic) [Compound 407],71%
21,Cc1ccccc1-c1csc(C(c2ccc(Cl)cc2)c2c(Cl)cc(-n3ncc(=O)[nH]c3=O)cc2Cl)n1 (racemic) [Comp 243],97%

# Same assay, conditions: test dose 1×10^−6 M, 48 hours, read-out: % inh. (percentage inhibition of IL-5 production)
row,Compound,inhibition at 1 µM
1,"O=C(O)c1sc(C(c2ccc(Cl)cc2)c2c(Cl)cc(-n3ncc(=O)[nH]c3=O)cc2Cl)nc1-c1ccccc1 (racemic) [Compound 299, (±)-2-[(4-chlorophenyl)[2,6-dichloro-4-(4,5-dihydro-3,5-dioxo-1,2,4-triazin-2(3H)-yl)phenyl]-methyl]-4-phenyl-5-thiazolcarboxylic acid]",38%
2,"O=c1cnn(-c2cc(Cl)c(C(c3ccc(Cl)cc3)c3nc(-c4ccccc4)no3)c(Cl)c2)c(=O)[nH]1 (racemic) [Compound 429, (±)-2-[3,5-dichloro-4-[(4-chlorophenyl)(3-phenyl-1,2,4-oxadiazol-5-yl)methyl]phenyl]-1,2,4-triazin-3,5(2H,4H)-dione]",78%
3,"CCNC(CSC(c1ccc(Cl)cc1)c1ccc(-n2ncc(=O)[nH]c2=O)cc1Cl)C(=O)O (racemic) [Compound 95, (±)-ethyl α-[[[(4-chlorophenyl)[2-chloro-4-(4,5-dihydro-3,5-dioxo-1,2,4-triazin-2(3H)-yl)phenyl]methyl]thio]methyl]glycine]",17%

# System: not given
# Experiment: not given
# Details: not given
row,Compound,melting point
1,"O=C(O)c1sc(C(c2ccc(Cl)cc2)c2c(Cl)cc(-n3ncc(=O)[nH]c3=O)cc2Cl)nc1-c1ccccc1 (racemic) [Compound 299, (±)-2-[(4-chlorophenyl)[2,6-dichloro-4-(4,5-dihydro-3,5-dioxo-1,2,4-triazin-2(3H)-yl)phenyl]-methyl]-4-phenyl-5-thiazolcarboxylic acid]",206 °C
2,"O=c1cnn(-c2cc(Cl)c(C(c3ccc(Cl)cc3)c3nc(-c4ccccc4)no3)c(Cl)c2)c(=O)[nH]1 (racemic) [Compound 429, (±)-2-[3,5-dichloro-4-[(4-chlorophenyl)(3-phenyl-1,2,4-oxadiazol-5-yl)methyl]phenyl]-1,2,4-triazin-3,5(2H,4H)-dione]",128 °C
